Test results: ChEMBL document CHEMBL1201862, “PubChem BioAssay data set” (2004)
Where “and” joins values, the source holds several entries; their conditions need not be identical. Identical values can stand only once.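 Values below derive from 48-hour exposures of cells grown in 96-well plates, with endpoints linearly interpolated between the two concentrations bracketing the appropriate inhibition level. GI50 is the concentration that inhibits growth by half.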 Calls of active or inactive are those of the source. Rule as the data show it: active = GI50 up to about 1.1 µM and inactive = higher.

Experiments:
Assay in all cases: growth of human tumour cells (NCI), 48 h
HT-29 = test system: HT-29
NCI-H522 = test system: NCI-H522
RXF 393 = test system: RXF 393
SK-MEL-2 = test system: SK-MEL-2
OVCAR-3 = test system: OVCAR-3
A549 = test system: A549
CAKI-1 = test system: CAKI-1
HCC 2998 = test system: HCC 2998
OVCAR-4 = test system: OVCAR-4
RPMI-8226 = test system: RPMI-8226
OVCAR-8 = test system: OVCAR-8
HOP-62 = test system: HOP-62
K562 = test system: K562
SR = test system: SR
EKVX = test system: EKVX
SF-539 = test system: SF-539

Measured: GI50

CC(C)(Oc1ccc(/C=C/C(=O)c2ccccc2)cc1)C(=O)Nc1c(Cl)cccc1Cl
inactive: HT-29 > 10 µM | NCI-H522 4.67 µM | RXF 393 > 10 µM | SK-MEL-2 > 10 µM | OVCAR-3 6.95 µM | A549 > 10 µM | CAKI-1 > 10 µM | HCC 2998 > 10 µM | OVCAR-4 > 10 µM | RPMI-8226 > 10 µM | OVCAR-8 > 10 µM | HOP-62 > 10 µM | K562 17 µM | SR 3.48 µM | EKVX > 10 µM | SF-539 > 10 µM

CC(C)C(NCc1c2ccccc2nc2ccccc12)C(=O)O (configuration not stated)
inactive: HT-29 30.7 µM | NCI-H522 22 µM | RXF 393 24.5 µM | SK-MEL-2 62.2 µM | OVCAR-3 39.5 µM | A549 74.6 µM | CAKI-1 28.6 µM | HCC 2998 47.9 µM | OVCAR-4 15 µM | RPMI-8226 27.3 µM | OVCAR-8 26.5 µM | HOP-62 > 100 µM | K562 32.6 µM | SR 20.6 µM | EKVX 40.6 µM | SF-539 45.3 µM

Cc1nc(Nc2ccc(Cl)cc2)sc1C(=O)NNC(=O)C(=O)NN
inactive: HT-29 16.6 µM | NCI-H522 17.2 µM | RXF 393 24.9 µM | SK-MEL-2 17.6 µM | OVCAR-3 21.5 µM | A549 21 µM | CAKI-1 23.3 µM | HCC 2998 20 µM | OVCAR-4 18.1 µM | OVCAR-8 32.5 µM | HOP-62 21.5 µM | K562 25.1 µM | SR 27.5 µM | EKVX 10.4 µM | SF-539 26.1 µM

COc1cc(/C=C/C(=O)c2cccc3ccccc23)cc(OC)c1OC
inactive: HT-29 4.27 µM | NCI-H522 4.68 µM | RXF 393 2.33 µM | SK-MEL-2 3.46 µM | OVCAR-3 12.8 µM | A549 8.18 µM | CAKI-1 7.5 µM | HCC 2998 15 µM | OVCAR-4 6.41 µM | OVCAR-8 1.98 µM | HOP-62 6.82 µM | K562 3.02 µM | SR 3.13 µM | EKVX 15 µM

CSC1=Nc2ccccc2N=C(c2ccccc2)C1
inactive: HT-29 46.7 µM | NCI-H522 37.6 µM | RXF 393 20.4 µM | SK-MEL-2 > 100 µM | OVCAR-3 30.7 µM | A549 80.2 µM | CAKI-1 75.2 µM | HCC 2998 62.2 µM | OVCAR-4 > 100 µM | OVCAR-8 61.7 µM | HOP-62 > 100 µM | K562 34.6 µM | SR 24 µM | EKVX 54.8 µM | SF-539 > 100 µM

COc1ccc(OC(C)C(=O)O)c2c1CCCC2=O (configuration not stated)
inactive: HT-29 > 100 µM | NCI-H522 > 100 µM | RXF 393 > 100 µM | SK-MEL-2 > 100 µM | OVCAR-3 > 100 µM | A549 > 100 µM | HCC 2998 > 100 µM | OVCAR-4 > 100 µM | RPMI-8226 > 100 µM | OVCAR-8 > 100 µM | HOP-62 > 100 µM | K562 > 100 µM | SR > 100 µM | EKVX > 100 µM | SF-539 > 100 µM

COc1ccc(C(=O)CC(=O)C(=O)Nc2ccc(C)c(C)c2)cc1
inactive: HT-29 > 100 µM | NCI-H522 68.9 µM | RXF 393 > 54.5 µM | SK-MEL-2 > 100 µM | OVCAR-3 > 100 µM | A549 > 91.8 µM | CAKI-1 > 100 µM | HCC 2998 97.3 µM | OVCAR-4 85.5 µM | RPMI-8226 > 47.5 µM | OVCAR-8 > 100 µM | HOP-62 > 90.8 µM | K562 53.6 µM | SR > 100 µM | EKVX > 100 µM | SF-539 > 100 µM

Cc1ccc(S(=O)(=O)ON=C2CC(c3ccccc3)N(C)C(c3ccccc3)C2)cc1 (configuration not stated)
inactive: HT-29 20 µM and 20.9 µM | NCI-H522 14.2 µM and 12.1 µM | RXF 393 20.2 µM and 18.8 µM | SK-MEL-2 15 µM | OVCAR-3 19.5 µM and 20 µM | A549 23.2 µM and 20.6 µM | CAKI-1 24.6 µM and 15.6 µM | HCC 2998 16.6 µM | OVCAR-4 18.7 µM and 17.4 µM | RPMI-8226 18.3 µM | OVCAR-8 17.6 µM and 16.9 µM | HOP-62 29 µM and 29.8 µM | SR 16.9 µM and 21.5 µM | EKVX 36.2 µM and 35.2 µM | SF-539 17.1 µM

CCN(CC)CCCn1cnc2ncccc2c1=O
inactive: HT-29 > 100 µM | NCI-H522 > 100 µM | RXF 393 > 100 µM | SK-MEL-2 > 100 µM | OVCAR-3 > 100 µM | A549 > 100 µM | CAKI-1 > 100 µM | HCC 2998 > 10 µM | OVCAR-4 > 100 µM | OVCAR-8 > 100 µM | HOP-62 > 100 µM | K562 > 100 µM | SR > 100 µM | EKVX > 100 µM | SF-539 > 100 µM
